From article PMC10313921, “A living ex vivo platform for functional, personalized brain cancer diagnosis” (Cell Reports Medicine, 2023)

How the values were obtained:
Assay type in all cases: cell-based, human
[1] = system: MB231Br (breast cancer metastasis to brain); assay: Drug screening of MB231Br tumor foci on OBSCs
[2] = system: LN229 (established GBM line); assay: Drug screening of LN229 tumor foci on OBSCs
Method: (§1) Tumor cells (0.17 μL, 25,000 cells) were seeded onto OBSCs 2h after slicing, with one tumor seeded in the center of each hemisphere for a total of two tumor foci per OBSC. BSM was changed 24h after slicing. Fluorescence images were taken 0 h, 24 h, and 96 h post-seeding for normalization of tumor size. Bioluminescence readouts were also taken at 0 h, 24 h, and 96 h post seeding for assessment of cell viability. Luciferin was added underneath the culture insert and allowed to incubate for 10 min before bioluminescence measurement on an AMI optical imaging system.
(§2) Tumor cells were seeded onto OBSCs 2h after slicing as described above. One day after tumor seeding, six concentrations of each drug were diluted in the media underneath each culture insert, or XRad was applied using an X-Rad 320 Precision X-ray machine (n = 4 tumor foci per concentration; n ≥ 24 tumor foci per drug per cell line). Three days after treatment, the bioluminescence of live tumor cells was measured using an AMI optical imager (Spectral Instruments) and dose-response curves were generated. Tumor survival was normalized to day one tumor fluorescence and compared to an untreated control group.
(§3) Several weighted parameters were factored into an overall drug sensitivity score.
(§4) For DSS parameters 1–6, therapeutic windows were calculated by comparing OBSC toxicity and tumor response at the doses where tumor kill passed through the DSS parameter (Table S1 and S3). For DSS parameter 7, the therapeutic window was calculated by comparing the slopes through the tumor EC50 and the OBSC tox EC50. For DSS parameter 8, the therapeutic window was calculated by comparing the areas under tumor kill and OBSC tox curves. Normalized therapeutic window ratios for DSS parameters 1–8 within each drug-tumor-OBSC interaction were calculated in the following manner: within each window, values ranged from +1 to −1, where values approaching +1 signify increasing tumor kill relative to normal tissue toxicity, and values approaching −1 indicate agents where tumors remained highly viable while toxicity to the normal OBSC tissue was elevated. DSS parameters 9–11 were determined based on the behavior of the tumor in response to the drug, as defined above.
(§5) All individually weighed parameters were added together to generate the DSS. Overall DSS from 0 to 100 signify increasing efficacy in tumor kill relative to OBSC toxicity, while scores from 0 to −100 describe scenarios in which tumors thrive more effectively than OBSCs for a given treatment. Dose-response values were calculated via linear interpolation of raw data, not from best-fit curve equations.

[3] = system: U373WT (wild-type established GBM line); assay: Drug screening of U373WT tumor foci on OBSCs
Method: as §1, §2, §3, §4, §5

[4] = system: U373KO (RAD18 knockout of U373WT via CRISPR); assay: Drug screening of U373KO tumor foci on OBSCs; conditions: U373 KO on OBSCs
Method: as §1, §2, §3, §4, §5

[5] = system: GBM8 (high-passage patient-derived GBM line); assay: Drug screening of GBM8 tumor foci on OBSCs
Method: as §1, §2, §3, §4, §5

[6] = system: MS21 (low-passage patient-derived GBM line); assay: Drug screening of MS21 tumor foci on OBSCs
Method: as §1, §2, §3, §4, §5

[7] = system: PDIPG (low-passage pediatric patient-derived line); assay: Drug screening of PDIPG tumor foci on OBSCs
Method: as §1, §2, §3, §4, §5

[8] = area under the dose-response curve, trapezoidal rule
[9] = dose required to kill 10% of the tumor
[10] = dose required to kill 25% of the tumor
[11] = dose required to kill 75% of the tumor

For O=NN(CCCl)C(=O)NC1CCCCC1 [Lomustine], the EC50 ([1]; Homo sapiens, MB231BR on OBSCs, dose required to kill 50% of the tumor) was 1610 µM, the EC90 ([1]; Homo sapiens, MB231BR on OBSCs, dose required to kill 90% of the tumor) was 1940 µM and the IC50 ([1]; Homo sapiens, MB231Br on OBSCs, dosed day 1, survival via bioluminescence day 4, linear interpolation) was 1610 µM. The “Killing at highest dose” value ([1]; MB231BR on OBSCs) was 9.70E-01 fraction of tumor population killed, the AUC ([1]; MB231BR on OBSCs, area under the dose-response curve, trapezoidal rule) was 1.96E+03 and the EC10 ([1]; MB231BR on OBSCs, dose required to kill 10% of the tumor) was 1280 µM. It also gave an EC25 ([1]; MB231BR on OBSCs, dose required to kill 25% of the tumor) of 1400 µM, an EC75 ([1]; MB231BR on OBSCs, dose required to kill 75% of the tumor) of 1820 µM and a Slope ([1]; MB231BR on OBSCs, slope through the EC50) of -1.20E-03. The “Killing at highest dose” value [2] was 1.00E+00 fraction of tumor population killed, the EC50 ([2]; Homo sapiens, LN-229, dose required to kill 50% of the tumor) was 960 µM and the EC90 ([2]; Homo sapiens, LN-229, dose required to kill 90% of the tumor) was 1780 µM. It also gave an IC50 ([2]; Homo sapiens, LN-229, dosed day 1, survival via bioluminescence day 4, linear interpolation) of 960 µM, an AUC [2, 8] of 9.70E+02 and an EC10 [2, 9] of 417 µM. The EC25 [2, 10] was 758 µM, the EC75 [2, 11] was 1440 µM and the Slope ([2]; slope through the EC50) was -1.24E-03. It also gave an EC50 ([3]; Homo sapiens, U373 MG, U373 WT on OBSCs, dose required to kill 50% of the tumor) of 665 µM, an EC90 ([3]; Homo sapiens, U373 MG, U373 WT on OBSCs, dose required to kill 90% of the tumor) of 1960 µM and an IC50 ([3]; Homo sapiens, U373 MG, U373 WT on OBSCs, dosed day 1, survival via bioluminescence day 4, linear interpolation) of 665 µM. The “Killing at highest dose” value ([3]; U373 WT on OBSCs) was 9.10E-01 fraction of tumor population killed, the AUC ([3]; U373 WT on OBSCs, area under the dose-response curve, trapezoidal rule) was 8.89E+02 and the EC10 ([3]; U373 WT on OBSCs, dose required to kill 10% of the tumor) was 139 µM. For the same compound, the EC25 ([3]; U373 WT on OBSCs, dose required to kill 25% of the tumor) was 554 µM, the EC75 ([3]; U373 WT on OBSCs, dose required to kill 75% of the tumor) was 1380 µM and the Slope ([3]; U373 WT on OBSCs, slope through the EC50) was -2.24E-03. The “DSS (drug sensitivity score)” value ([3]; U373 WT, scale -100 to +100, tumor kill relative to OBSC toxicity) was 64, the EC50 ([4]; Homo sapiens, U373 MG, dose required to kill 50% of the tumor) was 607 µM and the EC90 ([4]; Homo sapiens, U373 MG, dose required to kill 90% of the tumor) was 1830 µM. For the same compound, the IC50 ([4]; Homo sapiens, U373 MG, dosed day 1, survival via bioluminescence day 4, linear interpolation) was 607 µM, the “Killing at highest dose” value [4] was 9.70E-01 fraction of tumor population killed and the AUC [4, 8] was 8.35E+02. The EC10 [4, 9] was 83.3 µM, the EC25 [4, 10] was 208 µM and the EC75 [4, 11] was 1460 µM. For the same compound, the Slope ([4]; slope through the EC50) was -5.60E-04, the “Killing at highest dose” value ([5]; GBM8 on OBSCs) was 1.00E+00 fraction of tumor population killed and the AUC ([5]; GBM8 on OBSCs, area under the dose-response curve, trapezoidal rule) was 1.54E+01. The EC10 ([5]; GBM8 on OBSCs, dose required to kill 10% of the tumor) was 0.685 µM, the EC25 ([5]; GBM8 on OBSCs, dose required to kill 25% of the tumor) was 1.71 µM and the EC75 ([5]; GBM8 on OBSCs, dose required to kill 75% of the tumor) was 5.45 µM. It also gave a Slope ([5]; GBM8 on OBSCs, slope through the EC50) of -1.46E-01, an EC50 ([5]; Homo sapiens) of 3.43 µM and an EC90 ([5]; Homo sapiens) of 8.71 µM. The IC50 ([5]; Homo sapiens) was 3.4 µM, the EC50 ([6]; Homo sapiens) was 1550 µM and the EC90 ([6]; Homo sapiens) was 1990 µM. The IC50 ([6]; Homo sapiens) was 1550 µM, the “Killing at highest dose” value ([6]; MS21 on OBSCs) was 9.10E-01 fraction of tumor population killed and the AUC ([6]; MS21 on OBSCs, area under the dose-response curve, trapezoidal rule) was 1.61E+03. The EC10 ([6]; MS21 on OBSCs, dose required to kill 10% of the tumor) was 1120 µM, the EC25 ([6]; MS21 on OBSCs, dose required to kill 25% of the tumor) was 1280 µM and the EC75 ([6]; MS21 on OBSCs, dose required to kill 75% of the tumor) was 1830 µM. The Slope ([6]; MS21 on OBSCs, slope through the EC50) was -9.20E-04, the EC50 ([7]; Homo sapiens) was 688 µM and the EC90 ([7]; Homo sapiens) was 1880 µM. For the same compound, the IC50 ([7]; Homo sapiens) was 688 µM, the “Killing at highest dose” value ([7]; PDIPG on OBSCs) was 9.30E-01 fraction of tumor population killed and the AUC ([7]; PDIPG on OBSCs, area under the dose-response curve, trapezoidal rule) was 9.11E+02. The EC10 ([7]; PDIPG on OBSCs, dose required to kill 10% of the tumor) was 354 µM, the EC25 ([7]; PDIPG on OBSCs, dose required to kill 25% of the tumor) was 425 µM and the EC75 ([7]; PDIPG on OBSCs, dose required to kill 75% of the tumor) was 1310 µM. It also gave a Slope ([7]; PDIPG on OBSCs, slope through the EC50) of -4.80E-04.
